Data: patent publication US20090286713A9, “Collagen Receptor I-Domain Binding Modulators” (Biotie Therapies Corporation, priority 2005, published 2009)

Legend:
α10 I-domain = target: T1, α10 I-domain (Homo sapiens, UniProt O75578); assay: Solid-phase binding assay, α10 I-domain binding to type I collagen; settings: at 0.05 mM concentration; FIG. 9
T1 construct: corresponding to amino acids 141-337 of the whole α10 integrin; made in house; host or cells: E. coli BL21 (pGEX-2T)
T1 sequence (O75578 163-359): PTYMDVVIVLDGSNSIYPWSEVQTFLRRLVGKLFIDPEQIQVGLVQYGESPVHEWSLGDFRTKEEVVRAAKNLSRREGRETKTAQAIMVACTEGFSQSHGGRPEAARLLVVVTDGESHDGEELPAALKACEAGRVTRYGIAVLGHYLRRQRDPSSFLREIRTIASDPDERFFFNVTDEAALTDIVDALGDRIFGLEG
Experimental: (§1) Solid-phase binding assay for α1-domains—The coating of a 96-well high binding microtiter plate (Nune) was done by exposure to 0.1 ml of PBS containing 5 μg/cm2 (15 μg/ml) collagens or 20 μg/ml triple-helical peptides overnight at +4° C. Blank wells were coated with 1:1 solution of 0.1 ml Delfia® Diluent II (Wallac) and PBS. Residual protein absorption sites on all wells were blocked with 1:1 solution of 0.1 ml Delfia® Diluent II (Wallac) and PBS. Recombinant proteins (αI-GST) were added to the coated wells at a desired concentration in Delfia® Assay Buffer and incubated for 1 h at room temperature. Europium-labelled anti-GST antibody (Wallac) was then added (typically 1:1000), and the mixture was incubated for 1 h at room temperature. All incubations mentioned above were done in the presence of 2 mM MgCl2. Delfia® enhancement solution (Wallac) was added to each well and the Europium signal was measured by time-resolved fluorometry (Victor2 multilabel counter, Wallac). At least three parallel wells were analyzed. In some cases some what modified solid-phase assay was used and it was performed according Tulla et al, 2001. It uses anti-GST and Europium-labelled protein G instead of Europium-labelled anti-GST antibody.
(§2) The inhibitory effect of L3009 was tested with all collagen binding integrin α I-domains, α1I, α2I, α10I and α11I as described in Example 4. […]

α11 I-domain = target: T2, α11 I-domain (Homo sapiens, UniProt Q9UKX5); assay: Solid-phase binding assay, α11 I-domain binding to type I collagen; settings: at 0.05 mM concentration; FIG. 9
T2 construct: two extra residues before α11I, residues 159-354; made in house; host or cells: E. coli BL21
T2 sequence (Q9UKX5 159-354): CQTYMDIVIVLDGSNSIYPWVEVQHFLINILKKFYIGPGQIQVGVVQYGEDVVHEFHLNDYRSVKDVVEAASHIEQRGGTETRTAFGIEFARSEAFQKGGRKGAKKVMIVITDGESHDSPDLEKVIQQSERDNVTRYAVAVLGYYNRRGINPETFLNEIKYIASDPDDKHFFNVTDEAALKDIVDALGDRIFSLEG
Experimental: as §1, §2

α2 I-domain = target: T3, α2 I-domain (Homo sapiens, UniProt P17301); assay: Solid-phase binding assay, α2 I-domain binding to type I collagen
T3 construct: corresponded to amino acids 124-339 of the whole α2 integrin; made in house; host or cells: E. coli BL21 (pGEX-2T)
T3 sequence (P17301 153-368): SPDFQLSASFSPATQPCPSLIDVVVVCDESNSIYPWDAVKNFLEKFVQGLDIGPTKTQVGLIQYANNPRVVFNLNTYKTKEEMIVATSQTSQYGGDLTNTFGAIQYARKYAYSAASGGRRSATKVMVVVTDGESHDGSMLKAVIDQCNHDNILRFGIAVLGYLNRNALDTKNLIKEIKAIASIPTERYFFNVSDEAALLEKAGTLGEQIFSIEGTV
Experimental: as §1
The tetracyclic Streptomyces compounds synthesised in Example 1, where screened for inhibition of collagen binding to α1 and α2 I-domains, using the α I-domain assay described in Example 4. […] L3015 could inhibit the binding of both α1I and α2 I-domains to type I and type IV collagen (FIG. 6B).
Based on the utilization of 3D model other compounds from the polyketide family were tested. The compounds were tested in the europium-labelled anti-GST assay described in Example 4. Tetracyclic polyketides L3007, L3008, and L3009 could inhibit α2 I-domain binding to type I collagen (FIG. 8A).

COC(=O)c1c(C(C)C)cc(O)c2c(O)c3c(c(O)c12)C(=O)c1cccc(O)c1C3=O [Compound L3009, methyl 4,5,7,12-tetrahydroxy-2-methylethyl)-6,11-dioxonaphthacenecarboxylate]
could inhibit: inhibition of collagen I binding of α10I (α10 I-domain) | inhibition of collagen I binding of α11I (α11 I-domain) | inhibition of α2 I-domain binding to type I collagen (in words) (α2 I-domain; FIG. 6B, 7A, 8A) | inhibition of collagen I binding of α2I (α2 I-domain; at 0.05 mM concentration, FIG. 9)
